Assay results as given in PubChem BioAssay AID1549 (Sanford-Burnham Center for Chemical Genomics, 2009).
Activity calls are given as the source filed them. How the calls were made is not given here.

These compounds were tested against Influenza A virus M2 proton channel (A/TW/4845/1999 H1N1) (assay: NMR binding screen, influenza A virus M2 proton channel, Kd (AID 1549)). Details: M2 protein.
In the case of `CC(=O)Nc1ccc(Cl)c(C(N)=O)c1`, the Kd was > 4 mM (inactive). For `Cc1nnc2sc(-c3csc4c3CCCC4)nn12`, the Kd was > 4 mM (inactive). For `O=C(NCCO)c1cc2ccccc2cc1O`, the Kd was > 4 mM (inactive). In the case of `CN1CCC(N2CCCC(C(N)=O)C2)CC1` (stereo unspecified), the Kd was > 4 mM (inactive). `N#Cc1nc(-c2cccs2)oc1N1CCOCC1` was tested, and the Kd was > 4 mM (inactive). For `COC(=O)c1scc(S(C)(=O)=O)c1-n1cccc1`, the Kd was > 4 mM (inactive). In the case of `CSc1cc(C)[nH]c(=O)n1`, the Kd was > 4 mM (inactive). For `Cc1cc2ncn(S(=O)(=O)N3CCOCC3)c2cc1C`, the Kd was > 4 mM (inactive). In the case of `Cc1ccc(C(=O)N2CCOCC2)cc1Cl`, the Kd was > 4 mM (inactive). With `O=C1CSC(=NC(=O)c2ccccc2)N1` the Kd was > 4 mM (inactive). `COc1cc(C(=S)N2CCOCC2)ccc1O` was tested, and the Kd was > 4 mM (inactive). With `CSc1ncc(C(=O)O)n1Cc1ccccc1` the Kd was > 4 mM (inactive). `Cc1nc2ccccc2c(=O)[nH]1` was tested, and the Kd was > 4 mM (inactive). For `OC1CCN(c2nccc(C(F)(F)F)n2)CC1`, the Kd was > 4 mM (inactive). With `O=c1[nH]cc(S(=O)(=O)N2CCc3ccccc32)c(=O)[nH]1` the Kd was > 4 mM (inactive). `CC(C)C(C)/C=C/C(C)[C@H]1CCC2C3=CCC4CC(=O)CC[C@]4(C)C3CC[C@@]21C` (stereo partly specified) was tested, and the Kd was > 4 mM (inactive). In the case of `COC(=O)[C@@H]1OC(=O)C2OC23[C@@]1(C)CCC1[C@@]2(C)CCC(=O)C(C)(C)C2C[C@@H](OC(C)=O)[C@]13C` (stereo partly specified), the Kd was > 4 mM (inactive). In the case of `Cc1nnsc1C(=O)Nc1ccccc1[N+](=O)[O-]`, the Kd was > 4 mM (inactive). In the case of `Cc1sc2nc(SC3CCOC3=O)[nH]c(=O)c2c1C` (stereo unspecified), the Kd was > 4 mM (inactive). With `Cc1cc2c(nn1)CCc1nonc1-2` the Kd was > 4 mM (inactive). With `Cc1ncoc1C(=O)Nc1ncc([N+](=O)[O-])s1` the Kd was > 4 mM (inactive). `O=C(O)C1CSC(c2ccccc2)N1` (stereo unspecified) was tested, and the Kd was > 4 mM (inactive). In the case of `CC(=O)Nc1ccc2c(c1)CCC2=O`, the Kd was > 4 mM (inactive). For `Nc1cc(=O)[nH]c(=S)n1-c1ccc(F)cc1`, the Kd was > 4 mM (inactive). In the case of `CC(C)c1ccc2c(c1)CCC1[C@](C)(CN)CCC[C@]21C` (stereo partly specified), the Kd was > 4 mM (inactive). With `NC(=O)Cc1nc2ccccc2[nH]1` the Kd was > 4 mM (inactive). `Cc1ccccc1NC(=O)CSc1ccnc(=O)[nH]1` was tested, and the Kd was > 4 mM (inactive). `CC(=O)Oc1c2c(c3c(c1CC=C(C)C)O[C@]14C(=C[C@@H]5CC1C(C)(C)OC4(C/C=C(\C)C(=O)O)C5=O)C3=O)OC(C)(CCC=C(C)C)C=C2` (stereo partly specified) was tested, and the Kd was > 4 mM (inactive). `O=C1C=CC2=C3c4cc(O)c(O)cc4C[C@@]3(O)COC2=C1` was tested, and the Kd was > 4 mM (inactive). For `COC(=O)CSc1n[nH]c(N)n1`, the Kd was > 4 mM (inactive). With `Cn1nc(C(=O)Nc2cccnc2)c2ccccc2c1=O` the Kd was > 4 mM (inactive). With `CC(=O)Oc1ccc(-c2cc(=O)c3c(OC(C)=O)cc(OC(C)=O)cc3o2)cc1` the Kd was > 4 mM (inactive). For `OC[C@H]1O[C@@H](O[C@H]2[C@H](O)[C@@H](O)[C@@H](O)O[C@@H]2CO)[C@H](O)[C@@H](O)[C@@H]1O`, the Kd was > 4 mM (inactive). `O=C(c1ccco1)N1CCN(Cc2cccc(F)c2)CC1` was tested, and the Kd was > 4 mM (inactive). `O=c1[nH]c(NCCO)nnc1Cc1ccccc1` was tested, and the Kd was > 4 mM (inactive). For `Cc1ccc(C(=O)Nc2c[nH]c(=O)[nH]c2=O)cc1`, the Kd was > 4 mM (inactive). With `Cc1nc2ccccc2c(=O)n1NC(=O)Nc1ccccc1` the Kd was > 4 mM (inactive). `COc1c(O)cc(O)cc1O` was tested, and the Kd was > 4 mM (inactive). In the case of `O=C1CCC(=O)N1c1nc2ccccc2s1`, the Kd was > 4 mM (inactive). In the case of `CC(=O)O[C@]1(C)CC[C@@]23CC1C(C)(C)[C@@H]2CC[C@H]3C`, the Kd was > 4 mM (inactive). `Cc1cc(=O)oc2cc(O)c(O)cc12` was tested, and the Kd was > 4 mM (inactive). In the case of `CC(C)c1c(O)ccc2c1CCC1[C@@](C)(CO)CCC[C@]21C` (stereo partly specified), the Kd was > 4 mM (inactive). For `Cn1c(SCCC(=O)O)nnc1-c1cccnc1`, the Kd was > 4 mM (inactive). `CC(CC(O)C1OC1(C)C)[C@@H]1CCC2(C)C3=CCC4C(C)(C)C(=O)CCC4(C)C3CC[C@@]12C` (stereo partly specified) was tested, and the Kd was > 4 mM (inactive). With `Cc1cc(C(=O)Nc2ccc3c(c2)OCCO3)c(C)o1` the Kd was > 4 mM (inactive). `Oc1cc(O)c2c(c1)O[C@H](c1ccc(O)c(O)c1)[C@@H](O)C2` was tested, and the Kd was > 4 mM (inactive). In the case of `C[C@H]1CCCC(=O)CCC/C=C/c2cc(O)cc(O)c2C(=O)O1`, the Kd was > 4 mM (inactive). In the case of `O=C(O)C(CO)c1ccccc1` (stereo unspecified), the Kd was > 4 mM (inactive). With `C[C@@H]1CC[C@]2(C(=O)O)CC[C@]3(C)C(=CCC4[C@@]5(C)CC[C@H](O)C(C)(C)C5CC[C@]43C)C2[C@H]1C` (stereo partly specified) the Kd was > 4 mM (inactive). With `COc1ccccc1NC(=O)C1CCCCC1` the Kd was > 4 mM (inactive). With `Cc1nc2[nH]onc2c2nccc(=O)c12` the Kd was > 4 mM (inactive). `CC12CCC(O)CC1CCC1C2[C@H](O)CC2(C)C(C3=CC(=O)OC3)CCC12O` (stereo partly specified) was tested, and the Kd was > 4 mM (inactive). With `COc1c2occc2cc2ccc(=O)oc12` the Kd was > 4 mM (inactive). `COc1cc(-c2coc3cc(OC)c(OC)c(OC)c3c2=O)cc(OC)c1OC` was tested, and the Kd was > 4 mM (inactive). For `CS(=O)(=O)N1CCN(c2ncccn2)CC1`, the Kd was > 4 mM (inactive). For `Cc1cc(C)n2nc(C(=O)NCc3ccco3)nc2n1`, the Kd was > 4 mM (inactive). With `CCC1=Nc2ccccc2-c2nnc(SC)nc2O1` the Kd was > 4 mM (inactive). In the case of `Cc1ccccc1NC(=O)c1ocnc1C`, the Kd was > 4 mM (inactive). In the case of `CN1CCN(CC(O)c2ccccc2)CC1` (stereo unspecified), the Kd was > 4 mM (inactive). `Nc1cccc(OC(F)(F)F)c1` was tested, and the Kd was > 4 mM (inactive). In the case of `CCn1cnc2cc(NCc3ccncc3)ccc21`, the Kd was > 4 mM (inactive). With `CCOC(=O)c1c(C)cc(OC)cc1O` the Kd was > 4 mM (inactive). In the case of `O=C(O)CN1C(=O)c2cccc([N+](=O)[O-])c2C1=O`, the Kd was > 4 mM (inactive). `CCC(C)C(=O)c1c(O)c(C)c2oc3c(C)c(O)c(C(=O)C(C)CC)c(O)c3c2c1O` (stereo unspecified) was tested, and the Kd was > 4 mM (inactive). `Cc1cc(NC(=O)c2cc(C)on2)no1` was tested, and the Kd was > 4 mM (inactive). For `CN1CCCCC1c1ccc(-c2cccnc2)nc1` (stereo unspecified), the Kd was > 4 mM (inactive). `Oc1cnc2ccccc2c1CN1CCOCC1` was tested, and the Kd was > 4 mM (inactive). With `CCCCCc1c2c(cc(O)c1C(=O)O)OC(=O)c1c(cc(OC)cc1C(=O)CCCC)O2` the Kd was > 4 mM (inactive). With `COc1cc2c(cc1O)[C@@H](Cc1ccc(O)cc1)[N+](C)(C)CC2` the Kd was > 4 mM (inactive). For `O=C1N/C(=N\c2ccccn2)SC1Cc1ccccc1` (stereo unspecified), the Kd was > 4 mM (inactive). `O=C(Nc1cccc(C(F)(F)F)c1)c1cccnc1` was tested, and the Kd was > 4 mM (inactive). For `COc1c(O)cc2c(-c3ccccc3)cc(=O)oc2c1OC`, the Kd was > 4 mM (inactive). In the case of `COc1ccccc1NC(=O)c1ccc(Br)o1`, the Kd was > 4 mM (inactive). For `Cc1ccc(-c2nc(N)n(C(=O)c3cccnc3)n2)cc1`, the Kd was > 4 mM (inactive). In the case of `Cn1c(O)c(/C=C2\C=CC=N2)c(=O)[nH]c1=S`, the Kd was > 4 mM (inactive). For `O=c1c2ccccc2oc2ccc(O)cc12`, the Kd was > 4 mM (inactive). In the case of `CCC(=O)NC(=S)Nc1ccc(O)cc1`, the Kd was > 4 mM (inactive). In the case of `O=C(Nc1ccccc1)Nc1ccccn1`, the Kd was > 4 mM (inactive). For `O=C(Nc1cccnc1)Nc1ccc2c(c1)OCO2`, the Kd was > 4 mM (inactive). In the case of `O=c1cc(-c2ccc(O)cc2)oc2cc(O)cc(O)c12`, the Kd was > 4 mM (inactive). With `CC(C)=CCC[C@](C)(O)C1CC=C(C)CC1` (stereo partly specified) the Kd was > 4 mM (inactive).
